In patent US7132453B2, “Method of using prostacyclin to treat respiratory syncytial virus infections” (Vanderbilt University, priority 2002, dated 2006):
Entries after “also recorded” stand apart in the source; their conditions may differ. Like-named read-outs stand apart in the source and are kept apart here.

Assays:
[1] = in vivo; cited from earlier work
[2] = cited from earlier work
vaccinia virus = details: BALB/c mice; cited from earlier work
RSV = test: Indomethacin in drinking water in RSV-infected BALB/c mice (weight loss curve); format: in vivo
Text: Genetically altered mice having the BALB/c background were obtained from Charles Rivers Laboratories, 251 Ballardvale Street,. Wilmington, Mass. 01887-1000. Modification to the level of PGI2 was accomplished by introducing indomethacin to the BALB/c mice. Indomethacin is a drug that is used to treat arthritis and other rheumatologic conditions and inhibits the activity of both COX-1 and COX-2 such that the formation of prostanoids, specifically PGI2, are not produced. Indomethacin is given to the mice in their drinking water in order to block the cyclooxygenase enzymes in order to determine the effect of the cyclooxygenase pathway on the immune response to RSV infection. Indomethacin is commercially available from Sigma, Inc. St. Louis, Mo.
As best seen in FIG. 4, mice treated with indomethacin have a much difference weight loss curve. Within the experiment, BALB/c mice were provided water having indomethacin, 30 micrograms/ml.
Female BALB/c mice that are 8–10 weeks of age and that weigh approximately 20 grams were used to determine the amount of weight loss that results from an RSV infection. The BALB/c mice were infected with RSV strain A as described in Example 1. Subsequent to infection, the mice received water in their drinking bottles to drink during the course of an infection. On day 5, the mice started to lose weight and the peak of illness as measured by maximal weight loss occurred on day 9. […] These mice then recovered and were fully back to baseline by day 19 after infection. FIG. 3 is an example of a typical body weight curve that occurs with RSV induced illness. On the Y-axis is the body weight as a percentage of the pre-infection weight. This curve is very reproducible although factors such as the strain of the mouse and the viral load administered can alter the severity and duration of illness.

RSV strain A = test: UT-15 by subcutaneous micro-infusion pump in RSV-infected BALB/c mice (mortality, body weight); format: in vivo; details: for survival percentage: FIG. 7
Text: The genetically altered mice and control mice were anesthetized with ketamine and xylazine, as described in Peebles, et al., 2001, J. Med. Virol. 63:178–88, which is incorporated herein by reference. The mice were intranasally infected with 10^7 pfu of RSV strain A. American Type Culture Collection, Manassas, Va.
In order to insert a micro-infusion pump into a mouse, the skin of the back, slightly posterior to the scapulae will be shaved and washed with ethanol. Subcutaneous implantation is technically the easiest and least invasive procedure. The usual site for subcutaneous implantation of Azlet pumps in mice is on the back, slightly posterior to the scapulae. Pumps are commercially available at: Alzet Osmotic Pumps, Durect Corporation, P.O. Box 530, Cupertino, Calif. 95015-0530. Absorption of the compound placed in the pump by local capillaries results in systemic administration. For subcutaneous pump implantation, the following steps are performed:
A micro-infusion pump system was inserted into a mouse as previously described in Example 8. After the micro-infusion pump was in place, UT-15 was administered subcutaneously for two weeks starting on the day prior to infection. The BALB/c mice received either different concentrations of UT-15 or water only, as indicated below. BALB/c mice were infected with RSV strain A as described in Example 1. There were 8–10 mice per group. The weight of each mouse was monitored on a daily basis. The mice were put on a scale to measure their weight.
Mice having received micro-infusion pumps received infusion of either water of some concentration of UT-15 for a period of 2 weeks after starting the day prior to RSV infection. […] Also shown are the percentage of body weight for each of the animals on each given day for the other animals either receiving no UT-15 or other concentrations of UT-15.

[3] = indomethacin 30 micrograms/ml in drinking water, FIG. 4

Which “share of oral iloprost reaching the systemic circulation” value [1] does the source give for `CC#CCC(C)[C@H](O)/C=C/[C@@H]1[C@H]2C/C(=C/CCCC(=O)O)C[C@H]2C[C@H]1O` (stereo partly drawn) [Iloprost] here?
The value was “less than 20%”.

And the “safety of administration to patients” value ([2]; iloprost: long-term, pulmonary hypertension patients, UT-15: patients treated for another disease)?
The value was “safe”.

Which “mortality from vaccinia virus infection vs non-treated mice” value (vaccinia virus) does the source give for `CC(=O)Oc1ccccc1C(=O)O` [aspirin] here?
Its value is “marked increase in mortality”.

What does the source list for `COc1ccc2c(c1)c(CC(=O)O)c(C)n2C(=O)c1ccc(Cl)cc1` [indomethacin]?
effect on RSV-induced illness (RSV; FIG. 4 legend): exacerbates and delays recover from RSV-induced illness; day of peak illness (weight loss) (RSV; [3]): 11 days; recovery of body weight after RSV infection (RSV; [3]): did not recover their weight; mortality from vaccinia virus infection vs non-treated mice (vaccinia virus): marked increase in mortality

What does the source list for `CCCCC[C@H](O)CC[C@@H]1[C@H]2Cc3cccc(OCC(=O)O)c3C[C@H]2C[C@H]1O` [UT-15]?
protection against RSV-induced mortality (percent survival) (RSV strain A; FIG. 7 legend and summary text, 2.0 and 20 ng/kg/min vs none): protects against RSV-induced mortality; also recorded: increase percentage of survival; protection against RSV-induced illness (percent of body weight) (RSV strain A; FIG. 8 legend, 20, 30, 40 ng/kg/min vs none): protects against RSV-induced illness; recovery period of the surviving mice vs mice without UT-15 (RSV strain A; UT-15 2.0 ng/kg/min): the recovery period was quicker; survival percentage (RSV strain A; UT-15 2.0 ng/kg/min subcutaneous for two weeks from the day prior to infection): next best survival percentage; survival percentage (RSV strain A; UT-15 20 ng/kg/min subcutaneous for two weeks from the day prior to infection): best survival percentage; recovery period for body weight (RSV strain A; UT-15 20 ng/kg/min, compared with 0, 30 and 40 ng/kg/min, FIG. 8): quickest recovery period for body weight; safety of administration to patients ([2]; in vivo): safely used

For `CCCCC[C@H](O)/C=C/[C@@H]1[C@H]2C/C(=C/CCCC(=O)O)O[C@H]2C[C@H]1O` [Epoprostenol], which side effects ([2]; in vivo, iv) is on record?
The side effects was “flushing, headache, chest pain, sweating, flu-like symptoms, nausea, vomiting, and systemic hypotension”.
